Data taken from patent US20130122085A1, “PHARMACEUTICAL COMPOSITIONS OF SELECTIVE ANDROGEN RECEPTOR MODULATORS AND METHODS OF USE THEREOF” (priority 2011, published 2013).

Columns and labels:
[1] = system: patients with cancer; test: Phase II double-blind, placebo-controlled study in cancer patients with weight loss; type: in vivo, human; conditions: 3 mg dose, 4 months
Description: A Phase II double-blind, placebo-controlled study was performed with patients with cancer that had experienced at least a 2% total body weight loss in the 6 months prior to the study. The subjects received S-I or matching placebo for 4 months. In this study, no exercise program was mandated and no diet control or monitoring was conducted. The primary endpoint of this study was total lean body mass. The key secondary endpoint of this study was physical function (stair climb speed and power).

[2] = system: ovariectomized female rats; test: Delivery system study: lean body mass and serum HDL in OVX rats; type: in vivo, rat; conditions: 14 days, 0.13 mg/kg/day constant rate subcutaneous infusion (Alzet pump) vs daily subcutaneous injection
Description: Female rats were ovariectomized and randomized by body weight into groups of 10. Treatment groups included: (1) 3 mg/kg/day DHT administered daily via subcutaneous injection, (2) 0.13 mg/kg/day S-I administered daily via subcutaneous injection, and (3) 0.13 mg/kg/day S-I administered at a constant rate via subcutaneous infusion by an Alzet pump. Baseline measurements of fasting serum HDL as determined by enzymatic assay were performed via retroorbital blood draw for all animals. Baseline lean body mass (LBM) as determined by magnetic resonance was determined for all animals. After 14 days of treatment, changes from baseline in lean body mass (Δ LBM) and fasting serum HDL (Δ HDL) were determined and represented as a percentage of DHT treated animals.

[3] = Exposure of S-I in female rats; type: in vivo, rat
Description: The exposure of S-I in female rats was AUCinf of 147,000 ng*hr/ml following a single 10 mg per kg IV dose. With the reasonable assumption that the SC Alzet pump dose was completely absorbed, a 0.13 mg per kg dose should result in an exposure of −1911 ng*hr/mL in rats. […] In other words, the 0.13 mg per kg per day Alzet dose in rats is equivalent to a 10 mg per day continuous release dose in humans, such as might be accomplished by a mechanical or osmotic pump, or transdermal patch, or the like.

[4] = Steady-state exposure in healthy young men (G100402, MAD); conditions: male, human, in vivo, 10 mg daily doses

Compound: C[C@](O)(COc1ccc(C#N)cc1)C(=O)Nc1ccc(C#N)c(C(F)(F)F)c1 [Compound S-I, (S)—N-(4-cyano-3-(trifluoromethyl)phenyl)-3-(4-cyanophenoxy)-2-hydroxy-2-methylpropanamide]
- power subjects were able to exert climbing 12 steps ([1]; p=0.001 compared to baseline, p=0.058 compared to placebo): statistically significant increase
- time it took the subjects to climb 12 steps ([1]; p=0.007 compared to baseline, p=0.028 compared to placebo): statistically significant decrease
- total lean body mass ([1]; p=0.015 compared to placebo, p=0.020 compared to baseline): statistically significant increase
- change from baseline in fasting serum HDL (Δ HDL) [2]: smaller decrease in serum HDL
- change from baseline in lean body mass (Δ LBM) [2]: larger increase in LBM than daily subcutaneous injections
- AUC(0-inf) ([3]; rat, in vivo, 10 mg/kg, female rats, single 10 mg per kg IV dose): 147000 ng·h/mL
- exposure expected at 0.13 mg per kg dose ([3]; rats, SC Alzet pump dose assumed completely absorbed, extrapolated from 10 mg per kg IV): -1911 ng·h/mL
- AUC(0-t) [4]: 1750 ng·h/mL
